{"source": "patent US8003570B2", "about": "“Composition and method for killing nematodes and weeds in soils” (priority 2006, dated 2011)", "type_in_all_cases": "in vivo", "key": {"tomatoes [1]": {"system": "tomatoes", "assay": "Example 1 field trial in Florida, tomatoes under plastic mulch: plant height, production, root weight", "conditions": "methyl bromide 400 pounds per acre, compositions 5 liters per acre", "procedure": "(§1) Field trials were conducted in Florida where tomatoes are grown under a plastic mulch and an irrigation system, called “T” tapes, which is used to irrigate the crop under the plastic mulch. Design of the experiment were three rows of a standard methyl bromide applications as the smallest replication. Four such sets of three rows were used as replicated applications. There was a zero treatment. Methyl bromide gas used at a 400 pounds per acre basis as the control and the compositions A, B, C. and D were used at a 5 liters per acre basis. Composition A was injected through the “T” tape one day after methyl bromide was injected.\n(§2) The plants growing in the middle rows only of these three rows, were used to collect data. In the middle rows, 14 plants were randomly selected for measuring. The height of the plants were collected at 30 days. Starting at fruit harvest, fruits collected from these 14 plants were cumulatively added to give the total production data. At the end of harvest these plants were carefully dug up and roots carefully washed to weigh the total roots and also measure the degree of infection in the roots. Soil samples were also collected from the holes where the plants were dug up and analyzed for soil nematode population. Finally, all nut sedge plants that came through the plastic mulch in the entire 150-yard middle rows were counted as a “strike”, a degree of insufficient kill of the rhizomes."}, "nematodes [2]": {"system": "nematodes", "assay": "Example 1 field trial in Florida: soil nematode population and root infection", "conditions": "methyl bromide 400 pounds per acre", "procedure": "as §1, §2"}, "tomatoes [3]": {"system": "tomatoes", "assay": "Example II field trial, methyl bromide dose reduction with or without composition A: tomato growth and production", "procedure": "as §1, §2\n(§3) In this experiment, methyl bromide was applied at full dose of 400 pounds per acre of the gas and the treatments used 200 pounds of methyl bromide per acre alone and with 5 liters of composition A per acre, 100 pounds of methyl bromide alone and with composition A at 5 liters per acre, 50 pounds of methyl bromide with 5 liters of composition A and the last treatment of 5 liters of composition A per acre by itself. Tomatoes were planted 20 days after methyl bromide was injected under the plastic mulch. Composition A was injected through the “T” tape one day after methyl bromide was injected. The design of Experiment II was the same as in Experiment I, and the data collected were as in the Experiment I. The results of this experiment are shown in Table II."}, "nematodes [4]": {"system": "nematodes", "assay": "Example II field trial: soil nematode population and root infection", "procedure": "as §1, §2, §3"}, "nut sedge rhizomes [5]": {"system": "nut sedge rhizomes", "assay": "Example 1 field trial in Florida: nut sedge strikes through plastic mulch", "conditions": "methyl bromide 400 pounds per acre", "procedure": "as §1\nThe plants growing in the middle rows only of these three rows, were used to collect data. In the middle rows, 14 plants were randomly selected for measuring. The height of the plants were collected at 30 days. Starting at fruit harvest, fruits collected from these 14 plants were cumulatively added to give the total production data. […] Soil samples were also collected from the holes where the plants were dug up and analyzed for soil nematode population. Finally, all nut sedge plants that came through the plastic mulch in the entire 150-yard middle rows were counted as a “strike”, a degree of insufficient kill of the rhizomes."}, "tomatoes [6]": {"system": "tomatoes", "assay": "Example II field trial, methyl bromide dose reduction with or without composition A: tomato growth and production", "conditions": "M.B. 50 lbs. alone"}, "nut sedge rhizomes [7]": {"system": "nut sedge rhizomes", "assay": "Example II field trial: nut sedge strikes", "procedure": "as §1, §2, §3"}}, "data": [{"smiles": "CBr", "note": "[Methyl Bromide, Methyl bromide]", "values": [{"measurement": "Weight of Roots", "setting": "tomatoes [1]; end of harvest", "value": 165, "unit": "gr."}, {"measurement": "Height at 30 Days", "setting": "tomatoes [1]", "value": 2.6, "unit": "feet"}, {"measurement": "Production Per Plant", "setting": "tomatoes [1]", "value": 16, "unit": "lbs."}, {"measurement": "nematode control in the soil", "setting": "nematodes [2]; Example 1 discussion", "value": "superior to compositions A, B, C and D"}, {"measurement": "Soil Nematode", "setting": "nematodes [2]; soil at end of harvest, compositions 5 liters per acre", "value": "700/10 gr"}, {"measurement": "Infection in Roots", "setting": "nematodes [2]; tomato roots, end of harvest, compositions 5 liters per acre", "value": "zero"}, {"measurement": "Height at 30 Days", "setting": "tomatoes [3]; M.B. 100 lbs. per acre alone", "value": 2.2, "unit": "ft."}, {"measurement": "Production Per Plant", "setting": "tomatoes [3]; M.B. 100 lbs. per acre alone", "value": 5.1, "unit": "lbs."}, {"measurement": "Weight of Roots", "setting": "tomatoes [3]; M.B. 100 lbs. per acre alone", "value": 90, "unit": "gr."}, {"measurement": "Height at 30 Days", "setting": "tomatoes [3]; M.B. 200 lbs. per acre alone", "value": 2.7, "unit": "ft."}, {"measurement": "Production Per Plant", "setting": "tomatoes [3]; M.B. 200 lbs. per acre alone", "value": 6.1, "unit": "lbs."}, {"measurement": "Weight of Roots", "setting": "tomatoes [3]; M.B. 200 lbs. per acre alone", "value": 120, "unit": "gr."}, {"measurement": "Height at 30 Days", "setting": "tomatoes [3]; M.B. 400 lbs per acre", "value": 3, "unit": "ft."}, {"measurement": "Production Per Plant", "setting": "tomatoes [3]; M.B. 400 lbs per acre", "value": 8.6, "unit": "lbs."}, {"measurement": "Weight of Roots", "setting": "tomatoes [3]; M.B. 400 lbs per acre", "value": 170, "unit": "gr."}, {"measurement": "Infection in Roots", "setting": "nematodes [4]; M.B. 50 lbs. alone", "value": "high"}, {"measurement": "Soil Nematode", "setting": "nematodes [4]; M.B. 50 lbs. alone", "value": "16,000"}, {"measurement": "Infection in Roots", "setting": "nematodes [4]; M.B. 100 lbs. per acre alone", "value": "high"}, {"measurement": "Soil Nematode", "setting": "nematodes [4]; M.B. 100 lbs. per acre alone", "value": "2200/10 gr."}, {"measurement": "Infection in Roots", "setting": "nematodes [4]; M.B. 200 lbs. per acre alone", "value": "slight"}, {"measurement": "Soil Nematode", "setting": "nematodes [4]; M.B. 200 lbs. per acre alone", "value": "1056/10 gr."}, {"measurement": "Infection in Roots", "setting": "nematodes [4]; M.B. 400 lbs per acre", "value": "zero"}, {"measurement": "Soil Nematode", "setting": "nematodes [4]; M.B. 400 lbs per acre", "value": "zero"}, {"measurement": "efficacy in controlling the weeds", "setting": "nut sedge rhizomes [5]; Example 1 discussion", "value": "same efficacy in controlling the weeds as composition A"}, {"measurement": "Live nut sedge in 150 yards", "setting": "nut sedge rhizomes [5]; shoots piercing plastic mulch in 150-yard middle rows, compositions 5 liters per acre", "value": "12/150 strikes″."}, {"measurement": "Height at 30 Days", "setting": "tomatoes [6]", "value": 2, "unit": "ft."}, {"measurement": "Production Per Plant", "setting": "tomatoes [6]", "value": 4, "unit": "lbs."}, {"measurement": "Weight of Roots", "setting": "tomatoes [6]", "value": 60}, {"measurement": "Live nut sedge in 150 yards", "setting": "nut sedge rhizomes [7]; M.B. 50 lbs. alone", "value": 38, "unit": "strikes"}, {"measurement": "Live nut sedge in 150 yards", "setting": "nut sedge rhizomes [7]; M.B. 100 lbs. per acre alone", "value": 28, "unit": "strikes"}, {"measurement": "Live nut sedge in 150 yards", "setting": "nut sedge rhizomes [7]; M.B. 200 lbs. per acre alone", "value": 18, "unit": "strikes"}, {"measurement": "Live nut sedge in 150 yards", "setting": "nut sedge rhizomes [7]; M.B. 400 lbs per acre", "value": 7, "unit": "strikes"}]}]}
